Measurements taken from patent publication US9115073B2, “1,3-diphenylpropane derivatives, preparations and uses thereof” (GENFIT, priority 2011, dated 2015).

How the values were obtained:
Format in all cases: cell-based
hPPARgamma = biological target: T1, hPPARgamma (Homo sapiens, UniProt P37231); assay: Gal4-hPPARgamma transactivation assay in COS-7 cells (luciferase); conditions: for EC50: Gal4-hPPARγ(LBD) transactivation; for Gal4-hPPARγ(LBD) TOP (% ref): maximal relative activation vs reference; for Emax: COS-7, maximal relative activation vs reference, read-out: Gal4-hPPARγ(LBD) TOP (% ref)
T1 construct: Gal4-hPPARγ(LBD); Gal4 (fusion partner); expressed in transfected cells; host or cells: COS-7 (monkey kidney)
T1 sequence (P37231 238-503 limits assumed): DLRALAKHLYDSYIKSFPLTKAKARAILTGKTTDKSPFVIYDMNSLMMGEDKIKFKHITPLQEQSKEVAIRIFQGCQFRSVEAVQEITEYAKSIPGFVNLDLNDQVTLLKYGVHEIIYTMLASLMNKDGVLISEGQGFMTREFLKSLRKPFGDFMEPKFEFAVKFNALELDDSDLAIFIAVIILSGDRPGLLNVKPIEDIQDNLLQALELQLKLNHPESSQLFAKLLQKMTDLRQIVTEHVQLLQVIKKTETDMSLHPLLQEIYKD
Method: (§1) Monkey kidney COS-7 cells were maintained in standard culture conditions (Dulbecco's modified Eagle's minimal medium: DMEM) supplemented with 10% fetal calf serum, 1% sodium pyruvate, 1% essential amino acids and 1% antibiotics at 37° C. in a humidified atmosphere of 5% C02 and 95% air. The medium was changed every 2 days. All tested compounds were dissolved in DMSO. Cells were transfected using 2 μl JetPEI™ (Polyplus transfection)/μg of DNA. Briefly, 40 μg of DNA was transfected in a 225 cm^2 culture flask of adherent COS-7 cells (respecting the 1/50 ratio between the Gal4(RE)_TkpGL3 plasmid and the plasmid coding the nuclear receptor of interest (pGal4-hPPARalpha, pGal4-hPPARgamma, pGal4-hPPARdelta, pGal4-mPPARalpha, pGal4-mPPARgamma and pGal4-mPPARdelta) or of the pGal4phi plasmid (negative control). Cells were enzymatically detached and seeded in 384 well plates at the density of 20,000 cells/well and then incubated for 4 hours at 37° C. The activation was automatically performed, by using the Genesis Freedom 200™ (Tecan), in fresh medium supplemented with 2% of synthetic serum, free of lipids (Ultroser™, Biosepra) supplemented with the tested compounds (compound of interest or reference molecules) or vehicle (DMSO 0.1%). The luciferase activity was measured with the Steady-Glo Luciferase Assay System (Promega, Madison, Wis.). All transactivation experiments were performed at least 2 times. Activation curves were realized using SigmaPlot® (version 7.0 from SPSS Inc.) software and took into account all the experimental points. SimgaPlot® was also used to fit the standard curves and then determine the specific EC50 values, maximum effect versus reference molecules and Hill slope. The Emax effect of each new ligand is represented as the ratio of the maximal induction (plateau) obtained with the new ligand and the induction obtained with the corresponding reference compound. The reference compounds for PPARalpha, PPARgamma and PPARdelta were fenofibrate (100 μM), rosiglitazone (10 μM) and GW501516 (1 μM).

hPPARdelta = biological target: T2, hPPARdelta (Homo sapiens, UniProt Q03181); assay: Gal4-hPPARdelta transactivation assay in COS-7 cells (luciferase); conditions: for EC50: Gal4-hPPARδ(LBD) transactivation; for Gal4-hPPARδ(LBD) TOP (% ref): maximal relative activation vs reference; for Emax: COS-7, maximal relative activation vs reference, read-out: Gal4-hPPARδ(LBD) TOP (% ref)
T2 construct: Gal4-hPPARδ(LBD); Gal4 (fusion partner); expressed in transfected cells; host or cells: COS-7 (monkey kidney)
T2 sequence (Q03181 211-439 limits assumed): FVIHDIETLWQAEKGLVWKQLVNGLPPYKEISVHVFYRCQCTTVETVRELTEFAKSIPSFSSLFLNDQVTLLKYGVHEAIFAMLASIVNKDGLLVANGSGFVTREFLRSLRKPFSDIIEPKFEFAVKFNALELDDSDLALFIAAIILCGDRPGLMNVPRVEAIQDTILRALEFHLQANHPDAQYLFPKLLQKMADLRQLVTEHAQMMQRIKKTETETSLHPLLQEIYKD
Method: as §1

hPPARalpha = biological target: T3, hPPARalpha (Homo sapiens, UniProt Q07869); assay: Gal4-hPPARalpha transactivation assay in COS-7 cells (luciferase); conditions: for EC50: Gal4-hPPARα(LBD) transactivation; for Gal4-hPPARα(LBD) TOP (% ref): maximal relative activation vs reference; for Emax: COS-7, maximal relative activation vs reference, read-out: Gal4-hPPARα(LBD) TOP (% ref)
T3 construct: Gal4-hPPARα(LBD); Gal4 (fusion partner); expressed in transfected cells; host or cells: COS-7 (monkey kidney)
T3 sequence (Q07869 239-466 limits assumed): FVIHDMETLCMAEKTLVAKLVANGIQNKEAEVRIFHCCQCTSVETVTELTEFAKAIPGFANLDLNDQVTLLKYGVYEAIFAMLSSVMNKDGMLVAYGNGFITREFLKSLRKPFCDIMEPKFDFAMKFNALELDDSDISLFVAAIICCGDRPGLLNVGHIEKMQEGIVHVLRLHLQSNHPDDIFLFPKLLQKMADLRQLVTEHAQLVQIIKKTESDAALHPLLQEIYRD
Method: as §1

Structure (SMILES): COC(c1ccc(OC(F)(F)F)cc1)C1CC1c1cc(C)c(OC(C)(C)C(=O)O)c(C)c1 (single isomer, unassigned) [Cpd 14-1-1, 2-(4-(2-(methoxy(4-(trifluoromethoxy)phenyl)methyl)cyclopropyl)-2,6-dimethylphenoxy)-2-methylpropanoic acid]
- EC50 (hPPARgamma): 81 nM
- Gal4-hPPARγ(LBD) TOP (% ref) (hPPARgamma; listed as cpd 14-1-1): 78 % ref
- EC50 (hPPARdelta): 27 nM
- Gal4-hPPARδ(LBD) TOP (% ref) (hPPARdelta; listed as cpd 14-1-1): 67 % ref
- EC50 (hPPARalpha): 211 nM
- Gal4-hPPARα(LBD) TOP (% ref) (hPPARalpha; listed as cpd 14-1-1): 43 % ref

Structure (SMILES): COC(c1ccc(OC(F)(F)F)cc1)C1CC1c1ccc(OC(C)(C)C(=O)O)c(C)c1 (racemic) [Cpd 7-1, 2-(4-(2-(methoxy(4-(trifluoromethoxy)phenyl)methyl)cyclopropyl)-2-methylphenoxy)-2-methylpropanoic acid]
- Emax (hPPARgamma): 55%
- EC50 (hPPARgamma): 45 nM
- Emax (hPPARdelta): 90%
- EC50 (hPPARdelta): 35 nM
- Emax (hPPARalpha): 42%
- EC50 (hPPARalpha): 265 nM

Structure (SMILES): COC(c1ccc(C(F)(F)F)cc1C(F)(F)F)C1CC1c1cc(C)c(OC(C)(C)C(=O)O)c(C)c1 (single isomer, unassigned) [Cpd 16-2, 2-(4-(2-((2,4-bis(trifluoromethyl)phenyl)(methoxy)methyl)cyclopropyl)-2,6-dimethylphenoxy)-2-methylpropanoic acid]
- EC50 (hPPARgamma): 2 nM
- EC50 (hPPARdelta): 12 nM
- EC50 (hPPARalpha): 50 nM

Structure (SMILES): COc1cc(OC(F)(F)F)ccc1C(OC)C1CC1c1cc(C)c(OC(C)(C)C(=O)O)c(C)c1 (racemic) [Cpd 17-1, 2-(4-(2-(methoxy(2-methoxy-4-(trifluoromethoxy)phenyl)methyl)cyclopropyl)-2,6-dimethylphenoxy)-2-methylpropanoic acid]
- Emax (hPPARgamma): 75%
- EC50 (hPPARgamma): 12 nM
- Emax (hPPARdelta): 86%
- EC50 (hPPARdelta): 6 nM
- Emax (hPPARalpha): 49%
- EC50 (hPPARalpha): 38 nM

Structure (SMILES): Cc1cc(C2CC2C(OCc2ccccc2)c2ccc(OC(F)(F)F)cc2)cc(C)c1OC(C)(C)C(=O)O (single isomer, unassigned) [Cpd 11-1, 2-(4-(2-(benzyloxy(4-(trifluoromethoxy)phenyl)methyl)cyclopropyl)-2,6-dimethylphenoxy)-2-methylpropanoic acid]
- Emax (hPPARgamma): 86%
- EC50 (hPPARgamma): 116 nM
- Emax (hPPARdelta): 75%
- EC50 (hPPARdelta): 79 nM
- Emax (hPPARalpha): 46%
- EC50 (hPPARalpha): 21 nM

Structure (SMILES): COC(c1ccc(C(F)(F)F)cc1F)C1CC1c1cc(C)c(OC(C)(C)C(=O)O)c(C)c1 (single isomer, unassigned) [Cpd 12-1, 2-(4-(2-(methoxy(2-fluoro-4-(trifluoromethyl)phenyl)methyl)cyclopropyl)-2,6-dimethylphenoxy)-2-methylpropanoic acid]
- Emax (hPPARgamma): 71%
- EC50 (hPPARgamma): 12 nM
- Emax (hPPARdelta): 89%
- EC50 (hPPARdelta): 7 nM
- Emax (hPPARalpha): 47%
- EC50 (hPPARalpha): 53 nM

Structure (SMILES): COC(c1ccc(OC(F)(F)F)cc1)C1CC1c1cc(C)c(OC(C)(C)C(=O)O)c(C)c1 (racemic) [Cpd 14-1, 2-(4-(2-(methoxy(4-(trifluoromethoxy)phenyl)methyl)cyclopropyl)-2,6-dimethylphenoxy)-2-methylpropanoic acid]
- Gal4-hPPARγ(LBD) TOP (% ref) (hPPARgamma; listed as cpd 14-1): 66 % ref
- Gal4-hPPARδ(LBD) TOP (% ref) (hPPARdelta; listed as cpd 14-1): 81 % ref

Structure (SMILES): COC(c1ccc(Br)cc1)C1CC1c1cc(C)c(OC(C)(C)C(=O)O)c(C)c1 (racemic) [Cpd 1-2, 2-(4-(2-(methoxy(4-bromophenyl)methyl)cyclopropyl)-2,6-dimethylphenoxy)-2-methylpropanoic acid]
- EC50 (hPPARgamma): 19 nM
- Gal4-hPPARγ(LBD) TOP (% ref) (hPPARgamma): 77 % ref
- EC50 (hPPARdelta): 54 nM
- Gal4-hPPARδ(LBD) TOP (% ref) (hPPARdelta): 83 % ref
- EC50 (hPPARalpha): 186 nM
- Gal4-hPPARα(LBD) TOP (% ref) (hPPARalpha): 33 % ref

Structure (SMILES): COC(c1ccccc1OC(F)(F)F)C1CC1c1cc(C)c(OC(C)(C)C(=O)O)c(C)c1 (single isomer, unassigned) [Cpd 13-2, 2-(4-(2-(methoxy(2-(trifluoromethyloxy)phenyl)methyl)cyclopropyl)-2,6-dimethylphenoxy)-2-methylpropanoic acid]
- EC50 (hPPARgamma): 9 nM
- EC50 (hPPARdelta): 214 nM
- EC50 (hPPARalpha): 623 nM

Structure (SMILES): Cc1cc(C2CC2C(OCc2ccccc2)c2ccc(OC(F)(F)F)cc2)cc(C)c1OC(C)(C)C(=O)O (racemic) [Cpd 11-2, 2-(4-(2-(benzyloxy(4-(trifluoromethoxy)phenyl)methyl)cyclopropyl)-2,6-dimethylphenoxy)-2-methylpropanoic acid]
- Gal4-hPPARγ(LBD) TOP (% ref) (hPPARgamma): 87 % ref
- Gal4-hPPARδ(LBD) TOP (% ref) (hPPARdelta): 67 % ref
- Gal4-hPPARα(LBD) TOP (% ref) (hPPARalpha): 42 % ref

Structure (SMILES): COC(c1ccc(OC(F)(F)F)cc1)C1CC1c1ccc(OC(C)(C)C(=O)O)c(Br)c1 (racemic) [Cpd 19-1, 2-(2-bromo-4-(2-(methoxy(4-(trifluoromethoxy)phenyl)methyl)cyclopropyl)phenoxy)-2-methylpropanoic acid]
- Emax (hPPARgamma): 64%
- EC50 (hPPARgamma): 97 nM
- Emax (hPPARdelta): 100%
- EC50 (hPPARdelta): 26 nM
- Emax (hPPARalpha): 53%
- EC50 (hPPARalpha): 157 nM

Structure (SMILES): COC(c1ccc(OC(F)(F)F)cc1)C1CC1c1ccc(OC(C)(C)C(=O)O)c(C(C)C)c1 (single isomer, unassigned) [Cpd 15-2, 2-(2-isopropyl-4-(2-(methoxy(4-(trifluoromethoxy)phenyl)methyl)cyclopropyl)phenoxy)-2-methylpropanoic acid]
- EC50 (hPPARgamma): 46 nM
- EC50 (hPPARdelta): 123 nM
- EC50 (hPPARalpha): 145 nM

Structure (SMILES): COC(c1ccc(C(F)(F)F)cc1C(F)(F)F)C1CC1c1cc(C)c(OC(C)(C)C(=O)O)c(C)c1 (single isomer, unassigned) [Cpd 16-1, 2-(4-(2-((2,4-bis(trifluoromethyl)phenyl)(methoxy)methyl)cyclopropyl)-2,6-dimethylphenoxy)-2-methylpropanoic acid]
- Emax (hPPARgamma): 80%
- EC50 (hPPARgamma): 14 nM
- Emax (hPPARdelta): 60%
- EC50 (hPPARdelta): 44 nM
- Emax (hPPARalpha): 40%
- EC50 (hPPARalpha): 108 nM

Structure (SMILES): COC(c1ccc(C(F)(F)F)cc1)C1CC1c1cc(C)c(OC(C)(C)C(=O)O)c(C)c1 (racemic) [Cpd 4-1, 2-(4-(2-(methoxy(4-(trifluoromethyl)phenyl)methyl)cyclopropyl)-2,6-dimethylphenoxy)-2-methylpropanoic acid]
- Emax (hPPARgamma): 84%
- EC50 (hPPARgamma): 20 nM
- Emax (hPPARdelta): 92%
- EC50 (hPPARdelta): 16 nM
- Emax (hPPARalpha): 47%
- EC50 (hPPARalpha): 64 nM

Structure (SMILES): COC(c1ccc(OC(F)(F)F)cc1)C1CC1c1ccc(OC(C)(C)C(=O)O)c(C(C)C)c1 (single isomer, unassigned) [Cpd 15-1, 2-(2-isopropyl-4-(2-(methoxy(4-(trifluoromethoxy)phenyl)methyl)cyclopropyl)phenoxy)-2-methylpropanoic acid]
- Emax (hPPARgamma): 66%
- EC50 (hPPARgamma): 66 nM
- Emax (hPPARdelta): 92%
- EC50 (hPPARdelta): 105 nM
- Emax (hPPARalpha): 24%
- EC50 (hPPARalpha): 449 nM

Structure (SMILES): COC(c1ccc(C)cc1)C1CC1c1cc(C)c(OC(C)(C)C(=O)O)c(C)c1 (racemic) [Cpd 2-1, 2-(4-(2-(methoxy(4-methylphenyl)methyl)cyclopropyl)-2,6-dimethylphenoxy)-2-methylpropanoic acid]
- Emax (hPPARgamma): 72%
- EC50 (hPPARgamma): 110 nM
- Emax (hPPARdelta): 85%
- EC50 (hPPARdelta): 152 nM
- Emax (hPPARalpha): 35%
- EC50 (hPPARalpha): 635 nM
